# Activity calls are given as the source filed them. The rule behind the calls is not given here.
# Assays:
# C2C12 [1] = assay: Induction of MyoD transcriptional activity in mouse C2C12 cells expressing MyoD-responsive 4RTK-Luc at 10 nM after 24 hrs by luciferase reporter gene assay; type: functional, cell-based
# C2C12 [2] = assay: Cytotoxicity against mouse C2C12 cells at 10 nM up to 24 hrs; type: cell-based; details: c2c12, 24 h, 0.01 µM
# C2C12 [3] = assay: Induction of myoblast differentiation in mouse C2C12 cells expressing MyoD-responsive 4RTK-Luc assessed as increase in MHC protein expression at 10 nM after 2 days by Western blot analysis; type: functional, cell-based
# C2C12 [4] = assay: Induction of myoblast differentiation in mouse C2C12 cells assessed as increase in MHC protein expression after 2 days by Western blot analysis; type: functional, cell-based
# C2C12 [5] = assay: Induction of myoblast differentiation in mouse C2C12 cells assessed as increase in MyoD protein expression after 2 days by Western blot analysis; type: functional, cell-based
# C2C12 [6] = assay: Induction of myoblast differentiation in mouse C2C12 cells assessed as increase in MHC expression after 2 days by DAPI staining based immunofluorescence assay; type: functional, cell-based
# C2C12 [7] = assay: Induction of myoblast differentiation in mouse C2C12 cells assessed as cylinder shaped multinucleated myotubes after 2 days by DAPI staining based immunofluorescence assay; type: functional, cell-based
# [8] = biological target: MAP kinase p38 (Mus musculus) (UniProt P47811+O08911+Q9WUI1+Q9Z1B7); assay: Induction of p38 MAPK phosphorylation in mouse C2C12 cells at 0.1 nM after 2 days by Western blot analysis relative to control; type: cell-based
# [9] = biological target: RAC-alpha serine/threonine-protein kinase (Mus musculus) (UniProt P31750); assay: Induction of Akt phosphorylation in mouse C2C12 cells up to 10 nM after 2 days by Western blot analysis; type: cell-based
# Chain of RAC-alpha serine/threonine-protein kinase (Mus musculus) (P31750 whole entry): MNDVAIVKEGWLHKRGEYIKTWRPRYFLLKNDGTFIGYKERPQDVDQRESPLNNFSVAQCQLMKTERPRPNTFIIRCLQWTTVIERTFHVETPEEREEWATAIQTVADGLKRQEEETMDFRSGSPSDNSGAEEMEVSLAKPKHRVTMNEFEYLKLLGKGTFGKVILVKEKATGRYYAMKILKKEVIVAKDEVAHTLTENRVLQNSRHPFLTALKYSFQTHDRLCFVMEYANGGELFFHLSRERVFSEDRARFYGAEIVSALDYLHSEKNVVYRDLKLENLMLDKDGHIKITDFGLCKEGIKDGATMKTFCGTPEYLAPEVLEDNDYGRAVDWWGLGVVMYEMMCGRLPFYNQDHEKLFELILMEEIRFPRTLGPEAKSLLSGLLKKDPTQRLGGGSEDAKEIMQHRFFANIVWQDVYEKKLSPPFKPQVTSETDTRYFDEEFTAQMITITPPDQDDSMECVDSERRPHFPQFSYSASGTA
fold change (FC) [8],Activity [9],Compound,Activity (C2C12 [1]),Activity (C2C12 [2]),Activity (C2C12 [3]),Activity (C2C12 [4]),Activity (C2C12 [5]),Activity (C2C12 [6]),Activity (C2C12 [7])
–,–,OC1c2c(ccc3c2OCO3)C=C2c3cc4c(cc3CCN21)OCO4 (centres undefined),Active,Non-Toxic,Active,–,–,–,–
6,Active,COc1ccc2c(c1O)-c1c(O)c(OC)cc3c1[C@H](C2)[N+](C)(C)CC3 [MAGNOFLORINE],Active,Non-Toxic,Active,Dose-dependent effect,Dose-dependent effect,Dose-dependent effect,Dose-dependent effect
–,–,COc1cc2c(cc1OC)-c1cc3ccc(OC)c(OC)c3c[n+]1CC2 [PALMITINE],Active,Non-Toxic,Active,–,–,–,–
–,–,COc1cc2c(cc1O)CC[n+]1cc3c(OC)c(OC)ccc3cc1-2 [JATRORRHIZINE],Active,Non-Toxic,Active,–,–,–,–
–,–,COc1ccc2cc3[n+](cc2c1OC)CCc1cc2c(cc1-3)OCO2 [BERBERINE],Active,Non-Toxic,Active,–,–,–,–
–,–,COc1cc2c(cc1OC)-c1cc3ccc4c(c3c[n+]1CC2)OCO4,Active,Non-Toxic,Active,–,–,–,–
